# Laboratory results reported in patent US20230372395A1, “CAR CELLS TARGETING AN INSERTED LIGAND” (Massachusetts Institute of Technology, priority 2022, published 2023).
# Legend:
# [1] = system: B16F10 murine melanoma cells; assay: Amph-FITC labeling of tumor cells in vitro, flow cytometry; format: cell-based; settings: incubated 30 min at 37° C.
# Protocol: (§1) Amph-FITC labeling and cytotoxicity studies: For in vitro labeling of tumor cells with amph-FITC, tumor cells were washed with 1×PBS and incubated at a cell density of 10^6 cells/mL for 30 minutes at 37° C. with DSPE-PEGx-FITC, where x=0, 1, 2, 3.4, 5, or 10 kDa (Creative PEGworks) in PBS. For cocultures, target cells were labeled simultaneously with 100 nM amph-FITC and CellTrace Violet (ThermoFisher); 20,000 target cells were seeded per well in a 96-well flat-bottom plate with CAR T cells at the indicated effector-to-target ratios. Following a 16 hr incubation, cells were stained with SYTOX red (ThermoFisher) for flow cytometry, and IFN-γ in the supernatant was quantified using a Mouse IFN gamma Uncoated ELISA Kit (Invitrogen).
# [2] = system: MC38 murine colon carcinoma cells; assay: as above; format: cell-based; settings: 100 nM, 30 min at 37° C.
# Protocol: as §1
# [3] = system: CT-2A glioblastoma cells; assay: as above; format: cell-based, murine; settings: 100 nM, 30 min at 37° C.
# Protocol: as §1
# [4] = system: B16F10 tumors; assay: CAR T cell expansion and tumor homing by bioluminescence imaging; format: in vivo, C57BL/6 mice
# From the text: (§2) C57BL/6 WT, CD45.1^+, Batf3 KO, and Rag1 KO mice (Jackson Laboratory, 6 to 8 weeks old) were inoculated with 10^6 B16F10, 10^6 MC38, 10^6 TC-1, or 3×10^6 CT-2A tumor cells subcutaneously at the flank. Once tumors grew to ˜25 mm^2 in area, mice underwent a non-myeloablative 5 Gy dose of TBI administered by a [^137Cs] gamma radiation source, 24 hr prior to adoptive transfer of 10^7 CD45.1+ CAR T cells IV via the tail vein. One day later, mice were vaccinated subcutaneously at the tail base with 10 nmol DSPE-PEG2k-FITC (Creative PEGworks) and 25 μg cyclic di-GMP (Invivogen), and vaccinated for 3 total doses, once weekly. Intratumoral injection of 10 nmol amph-FITC was administered beginning the day after the first vaccination, and continuing every 3 days.
# (§3) For all studies, tumor progression was monitored by caliper measurements. Survival was evaluated over time until tumors exceeded 200 mm^2 in area, were severely ulcerated >1 week, or experienced >20% weight loss. To monitor trafficking of Fluc-expressing CAR T cells, mice were injected subcutaneously at the scruff with 150 mg/kg D-luciferin K^+ Salt (Perkin-Elmer) and imaged on a Xenogen IVIS Spectrum. Prior to imaging, C57BL/6 mice were depilated on their back to improve signal sensitivity.
# [5] = system: CT-2A tumors; assay: T cell infiltration of treated tumors, immunohistochemistry; format: in vivo, C57BL/6 mice; settings: day 12, i.t. amph-FITC ± amph-FITC vaccine
# From the text: as §2
# [6] = system: B16F10 tumors; assay: In vivo therapy study, tumor growth and survival; design: species or system C57BL/6 mice; settings: addition of amph-FITC vaccine boosting to E2-28z CAR T cells + intratumoral amph-FITC
# From the text: as §2, §3
# [7] = system: CT-2A tumors; assay: In vivo therapy study, tumor growth and survival; design: species or system C57BL/6 mice; settings: intratumoral once every 6 days instead of every 3 days
# From the text: as §2, §3
# [8] = Toxicity of amph-FITC and FITC CAR T therapy in tumor-bearing mice; format: in vivo, C57BL/6 mice
# From the text: as §2, §3
# [9] = system: B16F10 melanomas; assay: Bilateral flank tumors, i.t. amph-FITC only in the 1° lesion; format: in vivo, C57BL/6 mice
# From the text: as §2, §3
# [10] = system: CT-2A tumors; assay: as above; format: in vivo, C57BL/6 mice; settings: FITC-CAR T cells, amph-FITC vaccination, i.t. amph-FITC right flank only
# From the text: as §2, §3
# [11] = system: MSTO-211H tumors; assay: Xenograft study with human CAR T cells and intratumoral amph-FITC; format: in vivo
# Protocol: For xenograft studies, 6- to 12-week-old NOD.Cg-Prkdc^scidIL2rg^tm1Wj1/SzJ (NSG) mice (Jackson Laboratory) were inoculated with 3×10^6 MSTO-211H cells subcutaneously at the flank. Once tumors grew to ˜25 mm^2, mice were adoptively transferred with 10^7 CAR T cells IV via the tail vein. Intratumoral injection of 10 nmol amph-FITC was administered beginning the day after adoptive transfer, and continuing every 3 days.
# as §3
# For quantification of human CAR T cells in the peripheral blood, spleen, and tumor, tissues were processed as described above, then stained with LIVE/DEAD Aqua, BUV496 anti-CD4 (clone SK3/Leu3a, BD Biosciences), BUV805 anti-CD8α (clone SK1, BD Biosciences), PE anti-myc tag (clone 9B11, Cell Signaling), and APC-Cy7 anti-CD45 (clone 2D1, BioLegend).
# [12] = system: B16F10 tumors
# Protocol: For cellular localization studies, MC38 tumor-bearing mice were injected intratumorally with 10 nmol DSPE-PEG2k-FITC, and 24 hr later tumors were enzymatically digested at 37° C. for 30 min with 1 mg/mL collagenase D and 0.2 mg/mL DNase I in complete RPMI media before mechanical dissociation through a 70 μm cell strainer.
# [13] = injection of only the primary tumor
substance,measurement,setting,value
"1,2-distearoyl-sn-glycero-3-phosphoethanolamine-PEG-FITC [amph-FITC]",FITC exposed on the cell surfaces (anti-FITC antibody staining),[1],exposed on the cell surfaces
same,association of amph-FITC with the cells (total FITC),[1],dose-dependent association
same,association with and exposure on cell surfaces,[2],associate with and be exposed on the surfaces
same,association with and exposure on cell surfaces,[3],associate with and be exposed on the surfaces
same,impact on overall T cell expansion or accumulation at the tumor site,[4]; addition of the vaccine boost to intratumoral amph-FITC,did not have a significant impact
same,CAR T cell expansion (bioluminescence),[4]; i.t. amph-FITC with E2-28z CAR T cells,triggered CAR T cell expansion
same,CAR T cell accumulation at the tumor site,[4]; intratumoral amph-FITC compared with amph-FITC vaccination alone,greater accumulation at the tumor site
same,T cell infiltration of treated tumors,[5],substantial T cell infiltration throughout the tumor
same,increase of median survival,[6],3 days
same,therapeutic effect at reduced injection frequency,[7],did not reduce the therapeutic effect
same,body weight,"[8]; CAR T cells with intratumoral amph-FITC and amph-FITC vaccination, versus untreated control",no weight loss
same,inflammation of the skin surrounding treated tumors,[8]; local i.t. administration during treatment,no obvious inflammation
same,growth of the treated primary tumor,[9]; [13],slowed growth
same,progression of the untreated lesions,[9]; [13],trend toward slowed progression
same,overall survival,[9]; over untreated animals,substantial increases in overall survival
same,overall survival,[10],substantially improved
same,progression of injected (1°) and non-injected (2°) tumors,[10],substantially slowed progression
same,graft vs. host disease,"[11]; mouse, in vivo",exacerbated GVHD
same,relative expansion of CAR T cells induced by amph-FITC treatment,[11]; whole mouse radiance,13.3 fold
same,cellular distribution of FITC labeling after lymphodepletion,[12]; 5 Gy TBI 24 hours prior to amph-FITC injection,favored labeling of cancer cells in an even greater proportion
same,proportion of each cell type bearing extracellularly exposed FITC,"[12]; after 1 hour, cancer cells and host cells",40-60%
same,proportion of cells still bearing exposed FITC,[12]; at 24 hours,20-40%
same,cell type numerically dominant among cells surface-decorated with FITC,[12]; by 24 hours,majority of cells surface-decorated with FITC were the cancer cells
